# According to patent EP4640686A1, “DEGRADER FOR DEGRADING BRD PROTEIN AND PHARMACEUTICAL COMPOSITION CONTAINING SAME” (Innocure Therapeutics, Inc., priority 2022, dated 2024):
# Where two headings read alike, the source gives them in different places.
# How the values were obtained:
# Format in all cases: cell-based
# BRD4-NUT = target: T1, BRD4-NUT (Homo sapiens, UniProt O60885+Q86Y26); test: BRD4-NUT protein degradation by western blotting in RPMI2650 cells (24 h treatment)
# T1 construct: endogenous in cells; host or cells: RPMI2650
# Protocol: (§1) The synthesized compounds were prepared with a 10 mM or 50 mM raw material solution dissolved in DMSO [dimethyl sulfoxide], and were diluted sequentially and treated. [RPMI2650] and [SNU2972] were cultivated under specific conditions.
# (§2) To evaluate the resolution of PROTAC for BRD4 expressed in cells, cells were dispensed in a concentration of 5 X 10^5 cells/well in a 6-well plate, and the sample was treated for 24 hours. […] Protein expression was normalized based on the expression value of β or GAPDH, and protein expression in each sample was measured as % based on 100% of samples treated with 0.1% DMSO vehicle. Protein expression was quantified using Image J program. Change in protein expression volume by compound treatment (DC50: concentration of compounds where 50% protein expression inhibition is achieved) was calculated using the GraphicPad Prism 8.0 software.
# RPMI2650 = test: Cancer cell antiproliferative activity / cell viability in RPMI2650 cells (72 h treatment); conditions: Homo sapiens
# Protocol: (§3) The human breast cancer cell line [MDA-MB-231] was cultured in RPMI medium with the addition of 10% fetal bovine serum, penicillin [100U/ml], and streptomycin [[…]]. The synthesized compounds were prepared with a 10 mM or 50 mM raw material solution dissolved in DMSO [dimethyl sulfoxide], and were diluted sequentially and treated. [RPMI2650] and [SNU2972] were cultivated under specific conditions.
# (§4) To observe cell growth inhibition, cells were dispensed in a concentration of 5,000 cells/well in a 96-well plate, and samples prepared at various concentrations were treated for 72 hours. The IC50 value (the concentration of the compound achieving 50% cytostaticism) is the average value of the results of three independent measurements.
# SNU2972 = test: Cancer cell antiproliferative activity / cell viability in SNU2972 cells (72 h treatment); conditions: read-out: BRD4 (IC50)
# Protocol: as §3, §4
# MDA-MB-231 = test: Cancer cell antiproliferative activity / cell viability in MDA-MB-231 cells (72 h treatment); conditions: Homo sapiens, read-out: BRD4 (IC50)
# Protocol: as §3, §4
# BRD4 [1] = target: T2, BRD4 (Homo sapiens, UniProt O60885); test: BRD4 protein degradation by western blotting in RPMI2650 cells (24 h treatment); set-up: To evaluate the resolution of PROTAC for BRD4 expressed in cells; endogenous in cells; host or cells: RPMI2650
# Protocol: as §1, §2
# BRD4 [2] = target: T2, BRD4; test: BRD4 protein degradation by western blotting in MDA-MB-231 cells (24 h treatment); set-up: To evaluate the resolution of PROTAC for BRD4 expressed in cells; endogenous in cells; host or cells: MDA-MB-231
# [3] = read-out: BRD4-NUT (DC50), RPMI2650
# [4] = RPMI-2650, RPMI2650, read-out: BRD4 (IC50)
# [5] = read-out: BR04 (DC50), RPMI2650
# [6] = RPM12650, read-out: BRD4-NUT (DC50)
# [7] = RPMI-2650, RPM12650, read-out: Cell Viatility (IC50)
# [8] = RPM12650, read-out: BRD4 (DC50)
Structure (SMILES),DC50 (BRD4-NUT; [3]),IC50 (RPMI2650; [4]),IC50 (SNU2972),IC50 (MDA-MB-231),DC50 (BRD4 [1]; [5]),DC50 (BRD4 [2]),DC50 (BRD4-NUT; [6]),IC50 (RPMI2650; [7]),DC50 (BRD4 [1]; [8])
"Cc1sc2c(c1C)C(c1ccc(Cl)cc1)=N[C@@H](CC(=O)N1CCC(CN3CCN(c4cc5c(C)nn(C6CCC(=O)NC6=O)c(=O)c5cc4F)CC3)CC1)c1nnc(C)n1-2 (stereo partly drawn) [ICT-0000953, 3-(6-(4-((1-(2-((S)-4-(4-chlorophenyl)-2,3,9-trimethyl-6H-thieno[3,2-f][1,2,4]triazolo[4,3-a][1,4]diazepine-6-il)acetyl)piperidine-4-il)methyl)piperazine-1-il)-7-fluoro-4-methyl-1-oxopthalazine-2(1H)-yl)piperidine-2,6-dione]",< 100 nM,< 100 nM,< 100 nM,< 100 nM,< 100 nM,< 100 nM,–,–,–
"Cc1sc2c(c1C)C(c1ccc(Cl)cc1)=N[C@@H](CC(=O)N1CCC(CN3CCN(c4cc5cnn(C6CCC(=O)NC6=O)c(=O)c5cc4F)CC3)CC1)c1nnc(C)n1-2 (stereo partly drawn) [ICT-0000971, 3-(6-(4-((1-(2-((S)-4-(4-chlorophenyl)-2,3,9-trimethyl-6H-thieno[3,2-f][1,2,4]triazolo[4,3-a][1,4]diazepine-6-day)acetyl)piperidine-4-il)methyl)piperazine-1-yl)7-fluoro-1-oxopthalazine-2(1H)-yl)piperidine-2,6-dione]",< 100 nM,< 100 nM,< 100 nM,< 100 nM,< 100 nM,< 100 nM,–,–,–
"Cc1sc2c(c1C)C(c1ccc(Cl)cc1)=N[C@@H](CC(=O)N1CCC(CN3CCN(c4cc5c(=O)n(C6CCC(=O)NC6=O)ncc5cc4F)CC3)CC1)c1nnc(C)n1-2 (stereo partly drawn) [ICT-0000972, 3-(7-(4-((1-(2-((S)-4-(4-chlorophenyl)-2,3,9-trimethyl-6H-thieno[3,2-f][1,2,4]triazolo[4,3-a][1,4]diazepine-6-day)acetyl)piperidine-4-il)methyl)piperazine-1-yl)-6-fluoro-1-oxopthalazine-2(1H)-yl)piperidine-2,6-dione]",< 100 nM,100 to 1000 nM,< 100 nM,< 100 nM,< 100 nM,< 100 nM,–,–,–
"Cc1sc2c(c1C)C(c1ccc(Cl)cc1)=N[C@@H](CC(=O)N1CC(N3CCN(c4ccc5c(=O)n(C6CCC(=O)NC6=O)ncc5c4)CC3)C1)c1nnc(C)n1-2 (stereo partly drawn) [ICT-0000973, 3-(6-(4-(1-(2-((S)-4-(4-chlorophenyl)-2,3,9-trimethyl-6H-thieno[3,2-f][1,2,4]triazolo[4,3-a][1,4]diazepine-6-day)acetyl)azetidine-3-il)piperazine-1-yl)-1-oxopthalazine-2(1H)-yl)piperidine-2,6-dione]",< 100 nM,100 to 1000 nM,100 to 1000 nM,< 100 nM,< 100 nM,< 100 nM,–,–,–
"Cc1sc2c(c1C)C(c1ccc(Cl)cc1)=N[C@@H](CC(=O)Nc1ccc(N3CCN(c4ccc5c(=O)n(C6CCC(=O)NC6=O)nc(C)c5c4)CC3)cc1)c1nnc(C)n1-2 (stereo partly drawn) [ICT-0001410, 2-((S)-4-(4-chlorophenyl)-2,3,9-trimethyl-6H-thieno[3,2-f][1,2,4]triazolo[4,3-a][1,4]diazepine-6-yl)-N-(4-(4-(2-(2,6-dioxopiperidin-3-yl)-4-methyl-1-oxo-1,2-dihydroptalazine-6-yl)piperazine-1-yl)phenyl)acetamide]",< 100 nM,< 100 nM,–,< 100 nM,< 100 nM,< 100 nM,–,–,–
"Cc1sc2c(c1C)C(c1ccc(Cl)cc1)=N[C@@H](CC(=O)Nc1ccc(CN3CCN(c4ccc5c(=O)n(C6CCC(=O)NC6=O)nc(C)c5c4)CC3)cc1)c1nnc(C)n1-2 (stereo partly drawn) [ICT-0001423, 2-[(9S)-7-(4-chlorophenyl)-4,5,13-trimethyl-3-thia-1,8,11,12-tetraazatricyclo[8.3.0.0^2,^6]trideca-2(6),4,7,10,12-pentaene-9-yl]-N-[4-({4-[2-(2,6-dioxopiperidin-3-yl)-4-methyl-1-oxo-1,2-dihydroptalazine-6-yl]piperazine-1-yl}methyl)phenyl]acetamide]",< 100 nM,< 100 nM,–,< 100 nM,< 100 nM,< 100 nM,–,–,–
"CC[C@@H]1c2nnc(C)n2-c2cnc(Nc3ccc(C(=O)N4CCN(CCNc5cccc6c(C)nn(C7CCC(=O)NC7=O)c(=O)c56)CC4)cc3OC)nc2N1CC1CCCCC1 (stereo partly drawn) [ICT-0001583, 3-(8-((2-(4-(4-(((R)-5-(cyclohexylmethyl)-4-ethyl-1-methyl-4,5-dihydro-[1,2,4]triazolo[4,3-f]pteridine-7-yl)amino)3-methoxybenzoyl)piperazine-1-yl)ethyl)amino)4-methyl-1-oxopthalazine-2(1H)-yl)piperidine-2,6-dione]",–,–,–,–,–,–,< 100 nM,> 1000 nM,< 100 nM
"CC[C@@H]1c2nnc(C)n2-c2cnc(Nc3ccc(C(=O)N4CCN(c5cccc6c(C)nn(C7CCC(=O)NC7=O)c(=O)c56)CC4)cc3OC)nc2N1CC1CCCCC1 (stereo partly drawn) [ICT-0001584, 3-(8-(4-(4-(((R)-5-(cyclohexylmethyl)-4-ethyl-1-methyl-4,5-dihydro-[1,2,4]triazolo[4,3-f]pteridine-7-yl)amino)-3-methoxybenzoyl)piperazine-1-yl)-4-methyl-1-oxopthalazine-2(1H)-yl)piperidine-2,6-dione]",–,–,–,–,–,–,< 100 nM,< 100 nM,< 100 nM
CC[C@@H]1c2nnc(C)n2-c2cnc(Nc3ccc(C(=O)NC4CCN(C(=O)C5CCN(c6ccc7c(C)nn(C8CCC(=O)NC8=O)c(=O)c7c6)CC5)CC4)cc3OC)nc2N1CC1CCCCC1 (stereo partly shown) [ICT-0001592],–,–,–,–,–,–,< 100 nM,< 100 nM,< 100 nM
"CC[C@@H]1c2nnc(C)n2-c2cnc(Nc3ccc(C(=O)N4CCN(CCNc5ccc6c(=O)n(C7CCC(=O)NC7=O)nc(C)c6c5)CC4)cc3OC)nc2N1CC1CCCCC1 (stereo partly drawn) [ICT-0001599, 3-(6-((2-(4-(4-(((R)-5-(cyclohexylmethyl)-4-ethyl-1-methyl-4,5-dihydro-[1,2,4]triazolo[4,3-f]pteridine-7-yl)amino)3-methoxybenzoyl)piperazine-1-yl)ethyl)amino)4-methyl-1-oxopthalazine-2(1H)-yl)piperidine-2,6-dione]",–,–,–,–,–,–,< 100 nM,> 1000 nM,< 100 nM
"CC[C@@H]1c2nnc(C)n2-c2cnc(Nc3ccc(C(=O)N4CCN(CCNc5ccc6c(C)nn(C7CCC(=O)NC7=O)c(=O)c6c5)CC4)cc3OC)nc2N1CC1CCCCC1 (stereo partly drawn) [ICT-0001600, 3-(7-((2-(4-(4-(((R)-5-(cyclohexylmethyl)-4-ethyl-1-methyl-4,5-dihydro-[1,2,4]triazolo[4,3-f]pteridine-7-yl)amino)3-methoxybenzoyl)piperazine-1-yl)ethyl)amino)4-methyl-1-oxopthalazine-2(1H)-yl)piperidine-2,6-dione]",–,–,–,–,–,–,< 100 nM,< 100 nM,< 100 nM
"CC[C@@H]1c2nnc(C)n2-c2cnc(Nc3ccc(C(=O)N4CCN(CCNc5cccc6cnn(C7CCC(=O)NC7=O)c(=O)c56)CC4)cc3OC)nc2N1CC1CCCCC1 (stereo partly drawn) [ICT-0001601, 3-(8-((2-(4-(4-(((R)-5-(cyclohexylmethyl)-4-ethyl-1-methyl-4,5-dihydro-[1,2,4]triazolo[4,3-f]pteridine-7-yl)amino)3-methoxybenzoyl)piperazine-1-il)ethyl)amino)1-oxopthalazine-2(1H)-yl)piperidine-2,6-dione]",–,–,–,–,–,–,< 100 nM,< 100 nM,< 100 nM
CC[C@@H]1c2nnc(C)n2-c2cnc(Nc3ccc(C(=O)N4CCN(CCNc5cccc6c(=O)n(C7CCC(=O)NC7=O)ncc56)CC4)cc3OC)nc2N1CC1CCCCC1 (stereo partly shown) [ICT-0001602],–,–,–,–,–,–,100 to 1000 nM,> 1000 nM,< 100 nM
"CC[C@@H]1c2nnc(C)n2-c2cnc(Nc3ccc(C(=O)N4CCN(CCNc5ccc6c(=O)n(C7CCC(=O)NC7=O)ncc6c5)CC4)cc3OC)nc2N1CC1CCCCC1 (stereo partly drawn) [ICT-0001603, 3-(6-((2-(4-(4-(((R)-5-(cyclohexylmethyl)-4-ethyl-1-methyl-4,5-dihydro-[1,2,4]triazolo[4,3-f]pteridine-7-yl)amino)3-methoxybenzoyl)piperazine-1-yl)ethyl)amino)1-oxopthalazine-2(1H)-yl)piperidine-2,6-dione]",–,–,–,–,–,–,< 100 nM,> 1000 nM,< 100 nM
